Like-named read-outs stand apart in the source and are kept apart here. Marks after values point to notes of the source that are not given here.
What was measured:
[1] = tested on: MDA-MB-231 breast cancer cells; experiment: MTT cell viability assay, MDA-MB-231; type: cell-based; conditions: MTT; for IC50: Homo sapiens, MDA-MB-231, 72 hours, Inactive = no measurable activity at 20 μM
Experimental: (§1) Cell viability of MDA-MB-231 breast cancer cells was evaluated by using the MTT assay in triple replicates in one experiment and repeated for three times (FIG. 3). […] The cells were incubated at 37° C. for a period of 24 hours. Escalating concentrations of IL-6/gp130 inhibitors (e.g., compounds of Formula (A), (B), (C), (D), (E), or (F) including LLM-418, bazedoxifene, LS-28-3, and COMP-D (LS-101-D)) were added in triplicate to the plates in the presence of 10% FBS. After incubation for 72 hours (unless otherwise noted), a stock solution of MTT (0.5 mg/ml) was then added to each well containing the treated cells, followed by incubation at 37° C. for 3 h. After removal of medium, the MTT dye was dissolved with spectrophotometric grade DMSO and the absorbance was read at 570 nm. The IC50 value is determined by interpolation based on the absorbance value halfway between positive and negative controls.

[2] = tested on: SUM159 breast cancer cells; experiment: MTT cell viability assay, SUM159; type: cell-based; conditions: 72 hours, Inactive = no measurable activity at 20 μM
Experimental: Cell viability of MDA-MB-231 breast cancer cells was evaluated by using the MTT assay in triple replicates in one experiment and repeated for three times (FIG. 3). MDA-MB-231 SUM159, SUM159 […], MDA-MB-231 breast cancer cells or SUM149 or HCC1937 BRCA mutant breast cancer cells were seeded in 96-well plates at a density of 3,000 cells per well. The cells were incubated at 37° C. for a period of 24 hours. Escalating concentrations of IL-6/gp130 inhibitors (e.g., compounds of Formula (A), (B), (C), (D), (E), or (F) including LLM-418, bazedoxifene, LS-28-3, and COMP-D (LS-101-D)) were added in triplicate to the plates in the presence of 10% FBS. After incubation for 72 hours (unless otherwise noted), a stock solution of MTT (0.5 mg/ml) was then added to each well containing the treated cells, followed by incubation at 37° C. for 3 h. After removal of medium, the MTT dye was dissolved with spectrophotometric grade DMSO and the absorbance was read at 570 nm. The IC50 value is determined by interpolation based on the absorbance value halfway between positive and negative controls.

[3] = tested on: SUM159 gp130ko breast cancer cells; experiment: MTT cell viability assay, SUM159 gp130ko; type: cell-based; conditions: SUM159, Table 1 batch studies, 72 hours, read-out: IC50 Values in Breast Cancer Cell Lines, SUM159 gp130ko
Experimental: as §1

[4] = tested on: MDA-MB-231 Bone Metastatic breast cancer cells; experiment: MTT cell viability assay, MDA-MB-231 Bone Metastatic; type: cell-based; conditions: Homo sapiens, 72 hours
Experimental: as §1

[5] = tested on: IL-6 induced p-STAT3; experiment: Selectivity study, western blot, T47D cells, IL-6 stimulation; type: cell-based; conditions: T47D breast cancer cells, compound 2 hours, then cytokine 30 minutes
Experimental: (§2) Cells were harvested and lysed in cold radioimmunoprecipitation assay (RIPA) lysis buffer containing proteasome inhibitor cocktail and phosphatase inhibitor cocktail. The protein concentrations were determined using the BCA Protein Assay kit. After adding the loading buffer and boiling at 95° C. for 10 minutes, equivalent amounts of proteins were loaded on and separated by SDS-PAGE, and then were transferred to PVDF membranes. Membranes were probed with primary antibodies (1:1000) against gp130 and GAPDH. Membranes were analyzed using Enhanced Chemiluminescence Plus reagents and either scanned with the Storm Scanner (Amersham Pharmacia Biotech, Inc., Piscataway, NJ) or imaged with ChemiDoc MP imaging system (Bio-Rad, Hercules, CA).
(§3) Inhibition of downstream STAT3 phosphorylation was performed. T47D breast cancer cells, which lack endogenous IL-6, were treated with LLM418-MCBu for 2 hours. Then, cytokine was administered for 30 minutes (IL-6, INF, LIF, or OSM). Western blot conducted afterwards to assess dose-dependent inhibition of IL-6 signaling (or lack thereof) (FIG. 5).

[6] = tested on: induced p-STAT1; experiment: Selectivity study, western blot, T47D cells, IFN stimulation; type: cell-based; conditions: T47D breast cancer cells, compound, then cytokine
Experimental: as §2, §3

[7] = tested on: LIF induced p-STAT3; experiment: Selectivity study, western blot, T47D cells, LIF stimulation; type: cell-based; conditions: T47D breast cancer cells, compound, then cytokine
Experimental: as §2, §3

[8] = tested on: pSTAT3 in TNBC cell line; experiment: pSTAT3 inhibition in TNBC cell line (FIG. 8); type: cell-based; conditions: compound, then cytokine
Experimental: (§4) FIG. 8 depicts TNBC, BRCA-mutant, and T47D cells stimulated with LLM418-MCBU, then cytokine.
as §2

[9] = tested on: pSTAT3 in BRCA-mutant cell line; experiment: pSTAT3 inhibition in BRCA-mutant cell line (FIG. 8); type: cell-based; conditions: compound, then cytokine
Experimental: as §4, §2

[10] = tested on: pSTAT3 in T47D cell line; experiment: pSTAT3 inhibition in T47D cell line (FIG. 8); type: cell-based; conditions: compound, then cytokine
Experimental: as §4, §2

[11] = tested on: HCC1937 BRCA-mutant TNBC cells; experiment: Cell viability, combination with PARP inhibitor talazoparib (FIG. 9); type: cell-based; conditions: LLM418-MCBU in combination with PARP inhibitor talazoparib
From the text: FIG. 9 depicts cell viability of HCC1937 BRCA-mutant TNBC cells treated with LLM418-MCBU and PARP inhibitor talazoparib.

[12] = target: T1, gp130 (Homo sapiens, UniProt P40189); experiment: DARTS assay in MDA-MB-231 breast cancer cell lysates; type: binding; conditions: 1:2000 pronase:protein, proteolysis 20 minutes; FIG. 1
T1 construct: endogenous in cells; host or cells: MDA-MB-231 breast cancer cells (RIPA lysate)
T1 sequence (P40189 23-918): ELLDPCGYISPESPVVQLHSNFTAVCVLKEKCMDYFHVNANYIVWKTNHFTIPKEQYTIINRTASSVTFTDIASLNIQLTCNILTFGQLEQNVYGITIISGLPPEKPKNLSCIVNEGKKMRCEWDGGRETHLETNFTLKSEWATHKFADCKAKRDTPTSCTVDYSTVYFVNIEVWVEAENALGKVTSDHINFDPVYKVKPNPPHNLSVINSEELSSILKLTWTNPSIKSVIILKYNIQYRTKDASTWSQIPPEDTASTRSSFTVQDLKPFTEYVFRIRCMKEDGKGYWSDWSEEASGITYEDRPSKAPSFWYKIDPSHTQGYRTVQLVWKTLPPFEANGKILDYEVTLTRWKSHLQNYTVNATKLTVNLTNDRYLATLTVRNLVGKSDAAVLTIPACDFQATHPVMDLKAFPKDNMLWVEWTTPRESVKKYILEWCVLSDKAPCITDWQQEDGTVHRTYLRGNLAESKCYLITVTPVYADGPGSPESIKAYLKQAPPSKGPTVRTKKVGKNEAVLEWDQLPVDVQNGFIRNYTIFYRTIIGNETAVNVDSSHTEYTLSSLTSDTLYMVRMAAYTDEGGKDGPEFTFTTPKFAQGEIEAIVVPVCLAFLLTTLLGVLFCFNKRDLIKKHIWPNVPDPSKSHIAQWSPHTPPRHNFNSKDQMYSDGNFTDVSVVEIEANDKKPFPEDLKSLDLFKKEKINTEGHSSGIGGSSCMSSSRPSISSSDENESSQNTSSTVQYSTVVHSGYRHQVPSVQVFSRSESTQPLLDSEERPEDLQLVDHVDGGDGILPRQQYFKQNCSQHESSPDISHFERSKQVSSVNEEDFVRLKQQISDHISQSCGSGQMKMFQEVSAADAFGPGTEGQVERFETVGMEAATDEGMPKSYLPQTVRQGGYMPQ
Experimental: as §2
(§5) MDA-MB-231 breast cancer cells or MIAPaCa2 pancreatic cancer cells were lysed in cold radioimmunoprecipitation assay (RIPA) lysis buffer containing proteasome inhibitor cocktail and phosphatase inhibitor cocktail. Then lysates were incubated with escalating concentrations (10-1000 μM) of LS-28-3 or bazedoxifene at room temperature for 1 h. Proteolysis was followed by adding protease pronase solution at a ratio of 1 mg of pronase to 1000 mg (or 2000 mg) of lysate protein for 20 min at room temperature. […] The resulted protein samples were separated by 8% SDS-PAGE gel and analyzed by western blotting. […]

[13] = target: T1, gp130; experiment: DARTS assay in MIAPaCa2 pancreatic cancer cell lysates; type: binding; conditions: 1:2000 pronase:protein, proteolysis 20 minutes; FIG. 2
Experimental: as §2, §5

[14] = Table 1 batch studies, read-out: IC50 Values in Breast Cancer Cell Lines, MDA-MB-231
[15] = Table 3 batch studies (independent from Table 1), read-out: MDA-MB-231 IC50
[16] = SUM159, Table 1 batch studies, read-out: IC50 Values in Breast Cancer Cell Lines, SUM159
[17] = SUM159, Table 3 batch studies (independent from Table 1), read-out: SUM159 IC50
[18] = MDA-MB-231, Table 1 batch studies, read-out: IC50 Values in Breast Cancer Cell Lines, MDA-MB-231 Bone Metastatic
[19] = MDA-MB-231, Table 3 batch studies (independent from Table 1), read-out: MDA-MB-231 Bone Metastatic IC50

Row | IC50 [1, 14] [µM] | IC50 [1, 15] [µM] | IC50 [2, 16] [µM] | IC50 [2, 17] [µM] | IC50 [3] [µM] | IC50 [4, 18] [µM] | IC50 [4, 19] [µM] | SMILES | Inhibition of IL-6 induced p-STAT3 [5] | Inhibition of IFN-7 induced p-STAT1 [6] | further results
1 | 49.7 | 30.1 | 5.9 | 15.1 | 16.1 | 11.8 | 21.1 | O=C(Nc1ccccc1-c1ccn(C2CCC2)n1)c1ccc(OCCN2CCCCC2)cc1 [LLM418-CBU, N-(2-(1-cyclobutyl-1H-pyrazol-3-yl)phenyl)-4-(2-(piperidin-1-yl)ethoxy)benzamide] | inhibits IL-6 induced p-STAT3 | also inhibits IFN-7 induced p-STAT1 | Inhibition of LIF induced p-STAT3 [7]: also inhibits
2 | 18.5 | 18.5 | 10.5 | 10.5 | 13.9 | 7.3 | 7.3 | O=C(Nc1ccccc1-c1ccn(CC2CCC2)n1)c1ccc(OCCN2CCCCC2)cc1 [LLM418-MCBu, N-(2-(1-(cyclobutylmethyl)-1H-pyrazol-3-yl)phenyl)-4-(2-(piperidin-1-yl)ethoxy)benzamide] | inhibited IL-6 selectively in a dose-dependent manner |  | Inhibition of IL-6 induced p-STAT3 ([5]; listed as LLM418-MCBU): selectively inhibits IL-6 induced p-STAT3; Inhibition of pSTAT3, TNBC cell line [8]: inhibits pSTAT3; Inhibition of pSTAT3, BRCA-mutant cell line [9]: inhibits pSTAT3; Inhibition of pSTAT3, T47D cell line [10]: inhibits pSTAT3; CI (synergy in inhibiting cell viability) [11]: < 1.0
3 | 19 | 19 | 9.1 | 9.1 | 12.1 |  | 29.7 | CC(C)n1ccc(-c2ccccc2NC(=O)c2ccc(OCCN3CCCCC3)cc2)n1 [LLM418-iPR, N-(2-(1-isopropyl-1H-pyrazol-3-yl)phenyl)-4-(2-(piperidin-1-yl)ethoxy)benzamide] | inhibit both IL-6 induced p-STAT3 and IFN-7 induced p-STAT1 | inhibit both IL-6 induced p-STAT3 and IFN-7 induced p-STAT1 | 
4 |  |  |  |  |  |  |  | CC(C)[C@H]1COC(=O)N1c1ccc(C(=O)Nc2cccc(-c3cc[nH]n3)c2)cc1 [LS-28-3, (S)—N-(3-(1H-pyrazol-3-yl)phenyl)-4-(4-isopropyl-2-oxooxazolidin-3-yl)benzamide] |  |  | Percent cells remaining after treatment with 10 μM compound, MDA-MB-231 ([1]; Table 1 batch studies): 88%***; Percent cells remaining after treatment with 10 μM compound, MDA-MB-231 ([1]; Table 3 batch studies): 88%***; IC50 Values in Breast Cancer Cell Lines, SUM159 ([2]; Table 1 batch studies): Inactive; SUM159 IC50 ([2]; Table 3 batch studies (independent from Table 1)): Inactive; Binding to gp130 (protection from pronase proteolysis), MDA-MB-231 lysates [12]: showed direct binding to gp130; Binding to gp130 (protection from pronase proteolysis), MIAPaCA2 lysates [13]: showed direct binding to gp130
